Assay [1] deals with WT DLD-1 cells. In words: Clonogenic assay in WT DLD-1 cells. As to conditions: WT DLD-1, after 7 days. It is filed as cell-based, human. Here is the method: (§1) Clonogenic or colony formation assays are in vitro assays that can measure the survival or growth of cells on a single-cell level based on the ability of a single cell to grow into a colony. WT or BRCA2^−/− DLD-1 cells were plated with different concentrations of SN38, 3E10 antibody, or 3E10-SN38 conjugate added into the clonogenic assay media. After 7 days for WT cells or 10 days for BRCA2^−/− cells, colony numbers were counted to quantify DLD-1 cell survival. […] Consistent with earlier results, DLD-1 cell survival was concentration-dependent.

The subject of assay [2] is DNA damage response proteins. In words: Western blot of DNA damage response proteins in SKOV3 cells. To be noted: 100 nM, 24, 48 and 72 hours. It is filed as cell-based. The procedure:
SKOV3 ovarian cancer cells were treated with 100 nM of SN38, cD31N antibody, or cD31N-SN38 as indicated and collected at 24, 48, and 72 hours of treatment for Western blot analysis to measure specific protein markers of DNA damage response as previously described. […] In particular, 7H2AX levels increased over time.
For orientation: In western blotting, separated proteins are transferred to a membrane and probed.

The test system of assay [3] is BRCA2^−/− DLD-1 colorectal adenocarcinoma cells. Put plainly: Cell viability assay in BRCA2-/- DLD-1 cells. As to conditions: BRCA^−/− DLD-1 cells. Format: cell-based, human. The text has this:
(§2) Cancer cell lines were acquired from ATCC and cultured according to well known methods in the art. Treatment with cytotoxic agents, antibodies, or ADCs refers to the addition of the cytotoxic agent, antibody or ADC (i.e., DM1 or cD31N-DM1, etc.) to the culture media for a set duration.
(§3) BRCA2 deficient (BRCA2′) cells are more sensitive to DM1 because BRCA2 participates in DNA double-stranded break (DSB) repair.

In assay [4] the test system is BRCA2^−/− DLD-1 cells. Put plainly: Clonogenic assay in BRCA2-/- DLD-1 cells. It is filed as cell-based, human. To be noted: BRCA2-/- DLD-1, after 10 days. The procedure: as §1
The test system of assay [5] is WT DLD-1 colorectal adenocarcinoma cells. Put plainly: Cell viability assay in WT DLD-1 cells. It is filed as cell-based, human.
Excerpt: as §2, §3
The viability assay protocol is set forth in Example 3.

The subject of assay [6] is WT HCT116 cells. Put plainly: Clonogenic assay in WT HCT116 cells. Format: cell-based. Here is the method:
as §1
(§4) The effects of treatment with SN38 or 3E10-SN38 conjugates on HCT116 cells were tested in clonogenic assays as previously described. WT and IDH1^mut HCT116 cells were treated with SN38, cD31N antibody, or cD31N-SN38 conjugate. Cell survival of WT (FIG. 25A) and IDH1^mut HCT116 cells (FIG. 25B) was quantified after 7 days for WT cells or 10 days for […].

Assay [7] relates to DNA damage response proteins such as γH2AX, p-ATM, and p-ATR. In words: Western blot of DNA damage response proteins in WT HCT116 cells. To be noted: WT HCT116, 100 nM, 24 hours. Format: cell-based. The procedure:
DNA damage induced by SN38 or the humanized 3E10-SN38 conjugates in WT and IDH1^mut HCT116 cells was assessed by measuring the levels of proteins involved in DNA damage response, p-ATM, p-ATR, pChk2, pChk1, 7H2AX and H2AX. HCT116 cells were treated with 100 nM of SN38, V66 antibody, or V66-SN38 conjugate and collected for Western blot after 24 hours and the results are shown in FIG. 26. No treatment (NT) was used as control.

Assay [8] deals with HCT116 colorectal cancer cells. Put plainly: Cell viability of WT HCT116 cells. It is filed as cell-based. Here is the method: WT and mutant IDH1 (IDH1^mut) HCT116 cells were treated with different concentrations of SN38, cD31N antibody, or cD31N-SN38 conjugate. The effects of 3E10-cD31N-SN38 conjugate treatment on HCT116 WT and HCT116IDH1^mut were investigated.
Assay [9] deals with HCT116-IDH1^mut cells. In words: Clonogenic assay in HCT116-IDH1mut cells. Format: cell-based. To be noted: after 10 days. The procedure:
as §1, §4

The test system of assay [10] is DNA damage response proteins, such as 7H2AX, p-ATM, and p-ATR. Put plainly: Western blot of DNA damage response proteins in DLD-1 cells after 96 hours. It is filed as cell-based, human. As to conditions: 100 nM. The procedure:
To measure the expression of DNA damage response proteins at a later time point, DLD-1 cells were treated with 100 nM of SN38, cD31N antibody, or cD31N-SN38 conjugate and collected for Western blot after 96 hours (4 days). Results at the 96 hour time point were consistent with the 24 and 48 hour results.

In assay [11] the test system is WT DLD-1 cells. In words: Single 24 hour treatment, long-term viability of WT DLD-1 cells. Format: cell-based, human. To be noted: WT DLD-1, 24 hour treatment, days 3, 5 and 7. The procedure:
The effects of treatment with the SN38 or 3E10-SN38 conjugates on the colorectal cancer DLD-1 cell line were investigated. WT and BRCA2^−/− deficient DLD-1 cells were tested. FIG. 13 provides the study protocol and timeline. Each well of a 96-well plate was loaded with 1000 DLD-1 cells. 24 hours post-plating, cells were treated with different concentrations of cWT-SN38 conjugate, cD31N-SN38 conjugate, or SN38 for 24 hours. After treatment, the media was replaced with fresh treatment-free media and was not changed again. Cell viability and half maximal effective concentration (EC50) were tracked every 48 hours post-treatment on days 3, 5, and 7. Half maximal effective concentration (EC50) is a measure of the concentration of a drug, antibody or toxicant which induces a response halfway between the baseline and maximum after a specified exposure time.

pEC50: −log10 of the molar value.

The term pEC50 denotes the EC50 on a negative log10 scale, so that one unit is a factor of ten. Low readings indicate a high EC50, high ones a low EC50. As to `CCc1c2c(nc3ccc(O)cc13)-c1cc3c(c(=O)n1C2)COC(=O)[C@]3(O)CC` [SN38, SN-38], the “cell survival (colony numbers)” value in assay [1] and in assay [4] was “reduced cell survival” each time. Further, the “protein expression of DNA damage response proteins” value in [2] is “protein expression of DNA damage response proteins was increased”. In addition, the pEC50 in assay [3] is 9.19; in assay [5], 8.20. In [6] (1 nM), this molecule yielded a survival fraction of 0%. Moreover, the entries for the “cell survival (clonogenic)” value in assay [6] (after 7 days) and in assay [9] were “low levels of cell survival in a concentration-dependent manner” and “low levels of cell survival”, respectively. The “protein levels of DNA damage response proteins” value in [7] was “increased the protein levels of DNA damage response proteins such as γH2AX, p-ATM, and p-ATR”. The cell viability result in assay [8] (5 days of treatment) and in assay [8] (7 days of treatment) was “substantial loss in cell viability” each time. The TOPO-1 levels result in [10] is “TOPO-1 levels were also reduced”. Moreover, the “expression of DNA damage response proteins” value in assay [10] is “increased expression of DNA damage response proteins”. In addition, in assay [11], the “EC50 values compared between treatments” value is “lower EC50 value than both 3E10-SN38 conjugates”.

Values taken from patent US20260207769A1, “ANTIBODY DRUG CONJUGATES” (YALE UNIVERSITY, priority 2022, published 2026).
